Measured values taken from US20180015144A1, “AGONISTS OF THE NOGO-A S1PR PATHWAY FOR THE TREATMENT OF GLIOBLASTOMA” (UNIVERSITAT ZURICH, priority 2015, published 2018).

What was measured:
other S1P receptors = conditions: cited from earlier work
S1PR2 = S1PR2 (Homo sapiens, UniProt O95136); conditions: cited from earlier work
GBM MVEC [1] = assay: Mean traction forces of adhered cells on nanopillars coated with Nogo-A proteins; format: cell-based, human; conditions: pre-incubation with blocker 10 μM, Nogo-A Delta 20-coated nanopillars
Method: (§1) For time-lapse- and force generation experiments, Vybrant/Dil (Invitrogen, 1:200)-labeled GBM MVEC (10^4 cells ml^−1) were added onto the nanopillar structures. The imaging process was started 1 h after seeding GBM MVEC on nanopillars. To calculate the traction force exerted by GBM MVEC on the nanopillar surface, the deflection of the nanopillar tip was imaged with confocal microscopy using a Leica confocal microscope SP5 with a63x, oil immersion, NA1.43 objective.
(§2) During image acquisition, GBM MVEC were kept at 37° C. and 10% CO2. Following laser wavelengths were used to acquire images of nanopillar arrays and Di-labeled cells: 488 nm (nanopillar structures) and 546 nm (Dil).
To quantitatively address the effects of coated Nogo-A proteins on adhesion between endothelial cells (GBM MVEC) and nanopillars, nanopillars were coated with Nogo-A Delta 20, Nogo-A Delta 21, or Fibronectin (blank condition).
To calculate the total force applied by endothelial cells (GBM MVEC) on the substrates, the average displacement of 800-5000 nanopillars per single cell was used. Single GBM MVEC were imaged for a total time of 20 min, with a scanning ratio of 30 s per frame. For each condition, at least three individual GBM MVEC were analyzed.
To address the role of Nogo-A receptors, endothelial cells were pre-incubated for 30 min before seeding with the pharmacological blocker of S1PR2 (JTE-013, 10 μM) (Tocris Bioscience), with the pharmacological blocker of S1PR1 and S1PR3 (VPC 23019, 10 μM) (Tocris Bioscience), or with the pharmacological blocker of S1PR1, 3, 4, and 5 (FTY720, 10 μM) (Tocris Bioscience).
(§3) To quantitatively address the acute effects of soluble Nogo-A proteins on GBM MVEC retraction, Dil-labeled endothelial cells on nanopillars coated with 25 μg*ml^−1 human Fibronectin were treated 30 min after cell seeding with soluble Nogo-A Delta 20 and Nogo-A Delta 21 at 1 μM. Single GBM MVEC were then imaged for a total time of 1.5 h, with a scanning ratio of 30 s per frame. The nanopillar displacements were recorded as sequence images when the GBM MVEC applied forces on the nanopillar surface. For each condition, at least three individual GBM MVEC were analyzed. To address the role of Nogo-A receptors, endothelial cells were cultured for 30 min before incubating the cells for another 30 min with the pharmacological blocker of S1PR2 (JTE-013, 10 μM) (Tocris Bioscience), with the pharmacological blocker of S1PR1 and S1PR3 (VPC 23019, 10 μM) (Tocris Bioscience), or with the pharmacological blocker of S1PR1, 3, 4, and 5 (FTY720, 10 μM) (Tocris Bioscience). Then soluble Nogo-A Delta 20 (at 1 μM) or Nogo-A Delta 21 (at 1 μM) was added and lamellipodia and filopodia were imaged for 1h. The displacements (x) of the nanopillar tips induced by whole endothelial cells (for experiments with coated Nogo-A proteins) or by single endothelial filopodia (for experiments with soluble Nogo-A proteins) were measured using the program Diatrack (Powerful Particle Tracking, Semasopht). Finally, corresponding traction forces were calculated using the formula F=k*x, where k represents the spring constant of the nanopillars, 78.76 nN/μm.

GBM MVEC filopodia = assay: Peak traction forces of filopodia on nanopillars, soluble Nogo-A proteins; format: cell-based, human; conditions: pre-incubation with blocker 10 μM, Nogo-A Delta 20 1 μM
Method: as §1, §2, §3

GBM MVECs = assay: Transwell migration assay (VEGF-A + fibronectin induced); format: cell-based, human; conditions: for migration potential despite Nogo-A Delta 20 exposure, blocker alone: pre-incubation with blocker 10 μM
Method: For the migration assays, the undersides of 24-well plate inserts (FluoroBlock, BD Falcon) were coated with 0.5 ml PBS containing 10 μg*ml^−1 fibronectin (recombinant human fibronectin, Biopur AG) and different concentrations of Nogo-A Delta 21, Nogo-A Delta 20 and Nogo-66 (R&D Systems) and incubated for 1 h at 37° C. Endothelial cells (GBM MVECs) were starved in migration medium (DMEM+0.25% BSA) 4 h before detachment with accutase (PAA Laboratories). Cells were resuspended in migration medium (1 Mio ml^−1) and labeled with calcein AM (Molecular Probes, 4 μg ml^−1), followed by washing with HBSS and resuspending in migration medium (125,000 cells ml^−1). The coated inserts were washed and the bottom chamber was prepared by adding migration medium with or without human VEGF-A (PeproTech Inc., 10 ng ml^−1). The inserts were then put in an empty 24-well plate (BD Falcon) and calcein AM-labeled endothelial cells (50,000 cells per insert) were added.
The loaded inserts were transferred to the prepared cluster plate and incubated at 37° C., 5% CO2 for 4 h. A cell titration plate was prepared by adding different cell numbers (50,000/25,000/12,500/6,250/3,125/1,563/782 cells per well) in triplicates in 1.2 ml migration medium and incubated in parallel. The fluorescence was measured after 4 h by a cytofluorometer (Tean Infinite Pro 200) and the number of migrated cells was calculated based on the titration curve.
To ask how co-signaling of Nogo-A Delta 20/Nogo-66 coated to the underside of transwell inserts and of its receptors affect cell migration, calcein-AM labeled GBM MVECs were incubated for 1 h with the pharmacological blockers of-the Nogo-A Delta 20 receptor S1PR2 (JTE-013, 1 μM, 10 μM), with the pharmacological blocker of S1PR1 and S1PR3 (VPC 23019, 10 μM) (Tocris Bioscience), and with the competitive inhibitor of the Nogo-66 receptor NgR1 (NEP1-40, 4.6 μg/ml) during calcein-AM labeling. After washing, the cell medium was again supplied with these pharmacological blockers, prior to cell addition in the upper chamber of the transwell insert.

GBM MVEC [2] = assay: Time-lapse imaging of lamellipodia and filopodia retraction on nanopillars, soluble Nogo-A proteins; format: cell-based, human; conditions: pre-incubation with blocker 10 μM, Nogo-A Delta 20 1 μM
Method: as §1, §2
To quantitatively address the acute effects of soluble Nogo-A proteins on GBM MVEC retraction, Dil-labeled endothelial cells on nanopillars coated with 25 μg*ml^−1 human Fibronectin were treated 30 min after cell seeding with soluble Nogo-A Delta 20 and Nogo-A Delta 21 at 1 μM. Single GBM MVEC were then imaged for a total time of 1.5 h, with a scanning ratio of 30 s per frame. The nanopillar displacements were recorded as sequence images when the GBM MVEC applied forces on the nanopillar surface. For each condition, at least three individual GBM MVEC were analyzed. […] Finally, corresponding traction forces were calculated using the formula F=k*x, where k represents the spring constant of the nanopillars, 78.76 nN/μm.

[3] = target: sphingosin-1 phosphate (S1P) receptor 2 (S1PR2) (human) (UniProt O95136); assay: cell-based or functional assay
sphingosin-1 phosphate (S1P) receptor 2 (S1PR2) (human), sequence (O95136 whole entry): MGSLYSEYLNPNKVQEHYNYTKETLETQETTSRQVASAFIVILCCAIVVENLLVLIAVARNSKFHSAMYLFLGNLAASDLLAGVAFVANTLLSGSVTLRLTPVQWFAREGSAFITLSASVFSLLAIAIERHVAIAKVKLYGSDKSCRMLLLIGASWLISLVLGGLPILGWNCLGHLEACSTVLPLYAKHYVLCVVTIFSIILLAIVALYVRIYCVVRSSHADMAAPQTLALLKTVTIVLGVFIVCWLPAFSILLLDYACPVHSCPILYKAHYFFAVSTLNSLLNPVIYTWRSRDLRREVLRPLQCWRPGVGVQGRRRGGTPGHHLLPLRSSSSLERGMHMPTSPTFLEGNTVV

S1PR2, sequence (O95136 whole entry): as above

Cc1cc(C(=O)Cn2cc(C#N)ccc2=O)c(C)n1Cc1ccccc1 [CYM-5520]
activation of other S1P receptors (other S1P receptors): do not activate | selectivity for S1PR2 (S1PR2): highly selective

CCCCCCCCc1ccc(CCC(N)(CO)CO)cc1 [FTY720]
effect of blocker on mean traction forces induced by Nogo-A Delta 20 coating (GBM MVEC [1]): did not decrease | effect of blocker on average peak traction forces of Nogo-A Delta 20 treated filopodia (GBM MVEC filopodia): did also decrease

Cc1nn(C)c2nc(NNC(=O)Nc3cc(Cl)nc(Cl)c3)cc(C(C)C)c12 [JTE-013]
migration potential despite Nogo-A Delta 20 exposure, blocker alone (GBM MVECs): significantly increases | effect of blocker on soluble Nogo-A Delta 20-induced retraction of lamellipodia and filopodia (GBM MVEC [2]): counterbalanced | mean traction forces induced by Nogo-A Delta 20 coating after blocker (GBM MVEC [1]): ~4.1 nN | average peak traction forces of Nogo-A Delta 20 treated filopodia after blocker (GBM MVEC filopodia): ~4.5 nN

CCCCCCCCc1cccc(NC(=O)[C@H](N)COP(=O)(O)O)c1 [VPC 23019]
inhibitor effect of Nogo-A Delta 20 on migration, combined blockers (GBM MVECs; combined pre-incubation of VPC 23019 with JTE-013): strong reduction of the inhibitor effect | migration potential despite Nogo-A Delta 20 exposure, blocker alone (GBM MVECs): no effect on its own | effect of blocker on mean traction forces induced by Nogo-A Delta 20 coating (GBM MVEC [1]): did not decrease | effect of blocker on average peak traction forces of Nogo-A Delta 20 treated filopodia (GBM MVEC filopodia): did also decrease

Cc1ccc(Sc2ccc(C3SCCS3)cc2[N+](=O)[O-])cc1 [XAX-162]
activation of other S1P receptors (other S1P receptors): do not activate | selectivity for S1PR2 (S1PR2): highly selective

NEP1-40: competitive antagonist of Nogo-66, inhibitor of the Nogo-66 receptor NgR1 (RIYKGVIQAIQKSDEGHPFRAYLESEVAISEELVQKYSNS; UniProt Q9NQC3 1055-1094, looked up, fragment)
migration potential upon exposure to Nogo-66 coating (GBM MVECs; pre-incubation with NEP1-40): significantly increases

Nogo-A Delta 20 (ligand)
mean traction forces of GBM MVECs on Nogo-A Delta 20-coated nanopillars [3]: 12 nN | peak traction forces of GBM MVEC filopodia on nanopillars, soluble Nogo-A Delta 20 at 1 µM [3]: 10 nN

B1: Nogo-66: inhibitory domain of Nogo, 66 aa; human aa 1055-1120 (SEQ ID NO 004), rat aa 1026-1091 (SEQ ID NO 003) (protein)
chain: RIYKGVIQAIQKSDEGHPFRAYLESEVAISEELVQKYSNSALGHVNCTIKELRRLFLVDDLVDSLK
VEGF+FN-induced migration (GBM MVECs; protein coated on the underside of the insert, different concentrations): dose-dependently inhibited
